The target of the assay is T1, LXRβ (Homo sapiens, UniProt P55055).
T1 construct: Co-transfection expression plasmids, comprising full-length LXRα (pCMX-h LXRα[…] or LXRβ (pCMX-hLXRβ)); expressed in transfected cells; host or cells: CV-1 African Green Monkey Kidney Cells
T1 sequence (P55055 1-460): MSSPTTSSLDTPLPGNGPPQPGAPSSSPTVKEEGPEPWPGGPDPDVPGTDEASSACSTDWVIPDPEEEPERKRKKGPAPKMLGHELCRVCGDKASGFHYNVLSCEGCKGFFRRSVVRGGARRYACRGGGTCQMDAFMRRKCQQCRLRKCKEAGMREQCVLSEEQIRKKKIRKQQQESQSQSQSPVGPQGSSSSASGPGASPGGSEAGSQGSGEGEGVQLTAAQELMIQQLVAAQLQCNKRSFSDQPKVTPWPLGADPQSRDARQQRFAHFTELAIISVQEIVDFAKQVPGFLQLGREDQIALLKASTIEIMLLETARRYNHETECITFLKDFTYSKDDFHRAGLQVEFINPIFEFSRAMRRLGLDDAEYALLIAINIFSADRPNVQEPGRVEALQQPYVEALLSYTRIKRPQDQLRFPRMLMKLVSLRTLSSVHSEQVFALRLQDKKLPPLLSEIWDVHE
T1 sequence (P19793 1-462 partner): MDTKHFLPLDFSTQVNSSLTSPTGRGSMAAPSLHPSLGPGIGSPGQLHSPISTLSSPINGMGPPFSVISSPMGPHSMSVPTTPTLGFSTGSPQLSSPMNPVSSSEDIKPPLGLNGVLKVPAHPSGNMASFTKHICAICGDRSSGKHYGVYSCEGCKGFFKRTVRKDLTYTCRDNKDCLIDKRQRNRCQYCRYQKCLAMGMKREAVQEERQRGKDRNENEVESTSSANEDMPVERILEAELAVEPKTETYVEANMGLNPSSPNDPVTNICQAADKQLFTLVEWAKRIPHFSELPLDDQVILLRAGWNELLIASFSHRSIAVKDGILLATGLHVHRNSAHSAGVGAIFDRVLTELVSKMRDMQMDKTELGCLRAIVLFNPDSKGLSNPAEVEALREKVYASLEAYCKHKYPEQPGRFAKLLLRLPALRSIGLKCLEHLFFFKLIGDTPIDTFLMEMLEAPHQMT
Put plainly: Co-transfection assay (LXRE luciferase reporter), LXRβ. The format is cell-based. Conditions: for EC50: CV-1 cells transfected with pCMX-hLXRβ and LXREx1-Tk-Luciferase, 20 hours incubation; for Emax: LXRβ co-transfection, relative to high control 1-(2,4-difluorobenzyl)-2-oxo-6-(4-phenoxyphenyl)-4-(trifluoromethyl)-1,2-dihydropyridine-3-carbonitrile, read-out: % Efficacy. In a few lines:
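CV-1 cells transiently co-transfected with full-length human LXRβ (or LXRα), LXREx1-Tk-luciferase reporter and β-galactosidase control; compound added (10 μM final in single-point, 11-point ½-log curves, ≤0.5% DMSO) for 20 h at 37 °C. Luciferase read; EC50 from four-parameter fit, efficacy relative to reference agonist high control.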
Background: In a reporter assay the amount or activity of a reporter protein is the signal.

As usually defined, the EC50 is the concentration that produces a half-maximal response. In the case of `Cc1nc(C(F)(F)F)cn1-c1ccc(-c2cccc(S(C)(=O)=O)c2)cc1-n1nncc1-c1ccc(Cl)c(C(F)(F)F)c1` [Example 64, 5-[4-chloro-3-(trifluoromethyl)phenyl]-1-{3′-(methylsulfonyl)-4-[2-methyl-4-(trifluoromethyl)-1H-imidazol-1-yl]biphenyl-3-yl}-1H-1,2,3-triazole], a half-maximal response (EC50) required 289 nM and the Emax came to 86%.

Consider `Cc1nc(C(F)(F)F)cn1-c1ccc(-c2cccc(S(C)(=O)=O)c2)cc1-n1nncc1-c1ccc(Cl)cc1Cl` [Example 76, 5-(2,4-dichlorophenyl)-1-{3′-(methylsulfonyl)-4-[2-methyl-4-(trifluoromethyl)-1H-imidazol-1-yl]biphenyl-3-yl}-1H-1,2,3-triazole], for which the response was half-maximal at 500 nM (EC50) and the Emax is 69%.

Regarding `Cc1nc(C(F)(F)F)cn1-c1ccc(-c2cccc(C(C)(C)C(N)=O)c2)cc1-c1cnnn1-c1ccc(OC(F)(F)F)cc1` [Example 241, 2-methyl-2-{4′-[2-methyl-4-(trifluoromethyl)-1H-imidazol-1-yl]-3′-(1-{4-[(trifluoromethyl)oxy]phenyl}-1H-1,2,3-triazol-5-yl)biphenyl-3-yl}propanamide], the EC50 was 405 nM and the Emax was 111%.

Regarding `Cc1nc(C(F)(F)F)cn1-c1ccc(-c2cccc(S(C)(=O)=O)c2)cc1-n1nncc1-c1ccc(Cl)c(Cl)c1` [Example 75, 5-(3,4-dichlorophenyl)-1-{3′-(methylsulfonyl)-4-[2-methyl-4-(trifluoromethyl)-1H-imidazol-1-yl]biphenyl-3-yl}-1H-1,2,3-triazole], the EC50 stood at 127 nM and the Emax amounted to 97%.

Turning to `Cc1nc(C(F)(F)F)cn1-c1ccc(-c2cccc(S(C)(=O)=O)c2)cc1-n1nncc1-c1ccc(C(F)(F)F)cc1` [Example 62, 1-{3′-(methylsulfonyl)-4-[2-methyl-4-(trifluoromethyl)-1H-imidazol-1-yl]biphenyl-3-yl}-5-[4-(trifluoromethyl)phenyl]-1H-1,2,3-triazole], the EC50 was 276 nM and the Emax was found to be 91%.

`Cc1nc(-c2cc(-c3cc(F)cc(S(C)(=O)=O)c3)ccc2-n2cc(C(F)(F)F)nc2C)c(-c2ccc(OC(F)F)c(F)c2)o1` [Example 462]: the response was half-maximal at 233 nM (EC50) and the Emax came out at 73%.

For the molecule `CCS(=O)(=O)c1cccc(-c2ccc(-n3cc(C(F)(F)F)nc3C)c(-n3nncc3C(F)(F)c3ccc(Cl)cc3)c2)c1` [Example 142, 5-[(4-chlorophenyl)(difluoro)methyl]-1-{3′-(ethylsulfonyl)-4-[2-methyl-4-(trifluoromethyl)-1H-imidazol-1-yl]biphenyl-3-yl}-1H-1,2,3-triazole], the EC50 was found to be 205 nM and the Emax was found to be 63%.

Consider `Cc1nc(C(F)(F)F)cn1-c1ccc(-c2cccc(S(C)(=O)=O)c2)cc1-n1nncc1Cc1ccc(Cl)c(Cl)c1` [Example 115, 5-[(3,4-dichlorophenyl)methyl]-1-{3′-(methylsulfonyl)-4-[2-methyl-4-(trifluoromethyl)-1H-imidazol-1-yl]biphenyl-3-yl}-1H-1,2,3-triazole], for which the EC50 was found to be 920 nM and the Emax worked out at 79%.

With `Cc1ccc(-c2oc(C)nc2-c2cc(-c3cc(F)c(CO)c(S(C)(=O)=O)c3)ccc2-n2cc(C(F)(F)F)nc2C)cc1` [Example 492, (3-fluoro-4′-(2-methyl-4-(trifluoromethyl)-1H-imidazol-1-yl)-3′-(2-methyl-5-p-tolyloxazol-4-yl)-5-(methylsulfonyl)biphenyl-4-yl)methanol], a half-maximal effect (EC50) was put at 34 nM and the Emax worked out at 64%.

For the molecule `Cc1nc(C(F)(F)F)cn1-c1ccc(-c2cccc(S(C)(=O)=O)c2)cc1-c1oc(CCO)nc1-c1ccc(OC(F)(F)F)cc1` [Example 611, 2-(5-(4-(2-methyl-4-(trifluoromethyl)-1H-imidazol-1-yl)-3′-(methylsulfonyl)-[1,1′-biphenyl]-3-yl)-4-(4-(trifluoromethoxy)phenyl)oxazol-2-yl)ethanol], the response was half-maximal at 554 nM (EC50) and the Emax came out at 62%.

`Cc1nc(-c2cc(-c3cc(F)c(CO)c(S(C)(=O)=O)c3)ccc2-n2cc(Cl)nc2C)c(-c2ccc(OC(F)F)c(F)c2)o1` [Example 467, (4′-(4-chloro-2-methyl-1H-imidazol-1-yl)-3′-(5-(4-(difluoromethoxy)-3-fluorophenyl)-2-methyloxazol-4-yl)-3-fluoro-5-(methylsulfonyl)biphenyl-4-yl)methanol]: the EC50 turned out to be 66 nM and the Emax is 65%.

For `Cc1nc(C(F)(F)F)cn1-c1ccc(-c2cc(F)c(CO)c(S(C)(=O)=O)c2)cc1-c1nc(C(F)(F)F)cn1-c1ccc(Cl)cc1` [Example 645, (3′-(1-(4-chlorophenyl)-4-(trifluotomethyl)-1H-imidazol-2-yl)-3-fluoro-4′-(2-methyl-4-(trifluoromethyl)-1H-imidazol-1-yl)-5-(methylsulfonyl)biphenyl-4-yl)methanol], a half-maximal effect (EC50) was put at 144 nM and the Emax worked out at 32%.

In the case of `Cc1nc(-c2cc(-c3cccc([S+](C)[O-])c3)ccc2-n2cc(C(F)(F)F)nc2C)c(-c2ccc(OC(F)(F)F)cc2)o1` (stereo not shown) [Example 533, 2-methyl-4-(4-(2-methyl-4-(trifluoromethyl)-1H-imidazol-1-yl)-3′-(methylsulfinyl)-[1,1′-biphenyl]-3-yl)-5-(4-(trifluoromethoxy)phenyl)oxazole], the EC50 amounted to 233 nM and the Emax amounted to 73%.

For `Cc1nc(-c2cc(-c3cccc(C4(C(N)=O)CC4)c3)ccc2-n2cc(C(F)(F)F)nc2C)c(-c2ccc3c(c2)OC(F)(F)O3)o1` [Example 446, 1-(3′-(5-(2,2-difluorobenzo[d][1,3]dioxol-5-yl)-methyloxazol-4-yl)-4′-(2-methyl-4-(trifluoromethyl)-1H-imidazol-1-yl)biphenyl-3-yl)cyclopropanecarboxamide], the EC50 stood at 836 nM and the Emax was found to be 51%.

With `Cc1nc(-c2cc(-c3cc(F)c(CO)c(S(C)(=O)=O)c3)ccc2-n2cc(C(F)(F)F)nc2C)c(-c2cccnc2Cl)o1` [Example 549, (3′-(5-(2-chloropyridin-3-yl)-2-methyloxazol-4-yl)-3-fluoro-4′-(2-methyl-4-(trifluoromethyl)-1H-imidazol-1-yl)-5-(methylsulfonyl)-[1,1′-biphenyl]-4-yl)methanol], a half-maximal response (EC50) required 483 nM and the Emax was 87%.

Turning to `Cc1nc(C(F)(F)F)cn1-c1ccc(-c2cccc(S(C)(=O)=O)c2)cc1-n1nncc1-c1ccc(F)c(Cl)c1` [Example 33, 5-(3-chloro-4-fluorophenyl)-1-{3′-(methylsulfonyl)-4-[2-methyl-4-(trifluoromethyl)-1H-imidazol-1-yl]biphenyl-3-yl}-1H-1,2,3-triazole], the EC50 is 649 nM and the Emax was determined as 103%.

For the molecule `COCc1c(F)cc(-c2cc(F)c(-n3cc(C(F)(F)F)nc3C)c(-n3nncc3-c3ccc(OC(F)(F)F)cc3)c2)cc1S(C)(=O)=O` [Example 206, 1-{3′,5-difluoro-4′-[(methyloxy)methyl]-5′-(methylsulfonyl)-4-[2-methyl-4-(trifluoromethyl)-1H-imidazol-1-yl]biphenyl-3-yl}-5-{4-[(trifluoromethyl)oxy]phenyl}-1H-1,2,3-triazole], the EC50 stood at 88 nM and the Emax worked out at 95%.

As for `Cc1nc(C(F)(F)F)cn1-c1ccc(-c2cc(F)c(CO)c(S(C)(=O)=O)c2)cc1-c1nc(C2CC2)oc1-c1ccc2c(c1)OC(F)(F)O2` [Example 483], the EC50 came out at 40 nM and the Emax turned out to be 66%.

Consider `CCS(=O)(=O)c1cccc(-c2ccc(-n3cc(C(F)F)nc3C)c(-n3nncc3C(C)c3ccc(Cl)cc3)c2)c1` (stereo not shown) [Example 131, 5-[1-(4-chlorophenyl)ethyl]-1-{4-[4-(difluoromethyl)-2-methyl-1H-imidazol-1-yl]-3′-(ethylsulfonyl)biphenyl-3-yl}-1H-1,2,3-triazole], for which it took 821 nM to reach a half-maximal effect (EC50) and the Emax came out at 77%.

Turning to `Cc1ccc(-c2cnnn2-c2cc(-c3cc(F)c(CO)c(S(C)(=O)=O)c3)ccc2-n2cc(C(F)(F)F)nc2C)cc1` [Example 48, {3-fluoro-3′-[5-(4-methylphenyl)-1H-1,2,3-triazol-1-yl]-5-(methylsulfonyl)-4′-[2-methyl-4-(trifIuoromethyl)-1H-imidazol-1-yl]biphenyl-4-yl}methanol], the EC50 came to 158 nM and the Emax was 89%.

For the origin of these results see patent US9834542B2, “LXR modulators” (BRISTOL-MYERS SQUIBB COMPANY, priority 2013, dated 2017).
